What was measured:
Type in all cases: in vivo
[1] = test system: TNF-α; experiment: Production quantity of TNF-α of adipose tissues from treated high-fat diet AKR mice (ELISA); details: 60th day, 25 μg/kg oral once a day; for inhibitory effect on the production of TNF-α compared with negative sample: adipose tissue, Tukey-Kramer's test; for TNF-α: culture supernatant of epididymal fat tissue after 1 hour culture
Description: (§1) This example was performed in order to evaluate an effect of the agent for improving insulin resistance of the present invention on production quantities of TNF-α and MCP-1 in each cell of adipose tissue by using AKR mice in which insulin resistance is induced by feeding with a high-fat diet.
(§2) In Example 2, the same Test Samples 1, 2 and the negative sample as those prepared in Example 1 were used.
(§3) These mice were divided into groups, each consisting of 8 mice. […] After 1 hour of the culture, culture supernatants were collected, and concentrations of TNF-α and MCP-1 in the culture supernatants were measured by ELISA method (Biosource).

[2] = test system: MCP-1; experiment: Production quantity of MCP-1 of adipose tissues from treated high-fat diet AKR mice (ELISA); details: 60th day, 25 μg/kg oral once a day; for inhibitory effect on the production of MCP-1 compared with negative sample: adipose tissue, Tukey-Kramer's test; for MCP-1: culture supernatant of epididymal fat tissue after 1 hour culture
Description: as §1, §2, §3

[3] = test system: AKR mice in which insulin resistance is induced by feeding with a high-fat diet; experiment: Level of free fatty acid in serum of high-fat diet AKR mice; details: for Test Sample/Negative sample (free fatty acid): serum free fatty acid relative to negative sample, 60th day, 25 μg/kg oral once a day; for Free fatty acid: serum, fasting, 60th day of oral administration 25 μg/kg of body weight once a day, AKR mice on high-fat diet
Description: Each of 9,19-cyclolanostan-3-ol and 24-methylene-9,19-cyclolanostan-3-ol produced in Preparation Example 3 was dissolved in DMSO, and each concentration was adjusted to 1 μg/ml with distilled water to thereby prepare Test Samples 1 and 2.
These mice were divided into groups, each consisting of 8 mice.

[4] = test system: AKR mice in which insulin resistance is induced by feeding with a high-fat diet; experiment: Insulin tolerance test in high-fat diet AKR mice; details: 45th day, 25 μg/kg oral once a day, 4 h fast, human insulin 0.75 U/Kg i.p., up to 60 minutes (FIG. 1)
Description: This example was performed in order to evaluate an enhancing effect of the agent for improving insulin resistance of the present invention on insulin sensitivity by performing an insulin tolerance test using AKR mice in which insulin resistance is induced by feeding with a high-fat diet.
In Example 3, the same Test Samples 1, 2 and the negative sample as those prepared in Examples 1 and 2 were used.
These mice were divided into groups, each consisting of 8 mice. […] In the present example, the insulin tolerance test was performed in such a manner that: the mice were fasted for 4 hours, and were then intraperitoneally administered with 0.75 U/Kg of body weight of a human insulin (Eli Lily and Company); and changes with time in blood glucose level were measured from the initiation of the administration of the insulin to after 60 minutes later.

Row | SMILES | inhibitory effect on the production of TNF-α compared with negative sample [1] | TNF-α [1] [pg/mL] | inhibitory effect on the production of MCP-1 compared with negative sample [2] | MCP-1 [2] [pg/mL] | Test Sample/Negative sample (free fatty acid) [3] [%] | Free fatty acid [3] [mEq/l] | change in blood glucose level after insulin administration [4]
1 | CC(C)CCCC(C)C1CCC2(C)C3CCC4C(C)(C)C(O)CCC45CC35CCC12C (centres unmarked) [Test Sample 1, 9,19-cyclolanostan-3-ol] | significant inhibitory effects | 29.80 ± 2.58 | significant inhibitory effects | 89.83 ± 6.16 | 81.1 | 1.20 ± 0.38 | rapid decrease in blood glucose levels
2 | C=C(CCC(C)C1CCC2(C)C3CCC4C(C)(C)C(O)CCC45CC35CCC12C)C(C)C (centres unmarked) [Test Sample 2, 24-methylene-9,19-cyclolanostan-3-ol] | significant inhibitory effects | 33.59 ± 0.59 | significant inhibitory effects | 99.32 ± 7.80 | 81.1 | 1.20 ± 0.25 | rapid decrease in blood glucose levels

From US7947669B2, “Agent for improving insulin resistance” (Morinaga Milk Industry Co., Ltd., priority 2005, dated 2011)
